Data taken from PubChem BioAssay AID248 (DTP/NCI, 2004).
Where “and” joins values, the source holds several entries; their conditions need not be identical. Identical values can stand only once. Inconclusive results and toxic doses are left out. Rule as the data show it: active = T/C of 150% or more; inactive = T/C below 125%.

Tested on: L1210 leukemia ip in BDF1 mice, survival T/C
Experiment: NCI In Vivo Anticancer Drug Screen. Data for tumor model L1210 Leukemia (intraperitoneal) in B6D2F1 (BDF1) mice
Settings: endpoint: mean survival time, higher = longer survival
Summary of the method: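 Value reflects the ratio of survival in compound-treated mice to survival in vehicle-treated controls, with both groups carrying the same transplanted tumor.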

[1] = dose: 100.0 mg/kg/injection, schedule: Q01DX009 (ip), vehicle: Klucel (hydroxypropylcellulose) (HPC)
[2] = dose: 100.0 mg/kg/injection, schedule: Q04DX003 (ip), vehicle: Klucel (hydroxypropylcellulose) (HPC)
[3] = dose: 200.0 mg/kg/injection, schedule: Q01DX009 (ip), vehicle: Klucel (hydroxypropylcellulose) (HPC)
[4] = dose: 200.0 mg/kg/injection, schedule: Q04DX003 (ip), vehicle: Klucel (hydroxypropylcellulose) (HPC)
[5] = dose: 400.0 mg/kg/injection, schedule: Q04DX003 (ip), vehicle: Klucel (hydroxypropylcellulose) (HPC)
[6] = dose: 100.0 mg/kg/injection, schedule: Q04DX003 (ip), vehicle: saline with Tween-80
[7] = dose: 200.0 mg/kg/injection, schedule: Q04DX003 (ip), vehicle: saline with Tween-80
[8] = dose: 400.0 mg/kg/injection, schedule: Q04DX003 (ip), vehicle: saline with Tween-80
[9] = dose: 100.0 mg/kg/injection, schedule: Q01DX009 (ip), vehicle: saline with Tween-80
[10] = dose: 200.0 mg/kg/injection, schedule: Q01DX009 (ip), vehicle: saline with Tween-80
[11] = dose: 100.0 mg/kg/injection, schedule: Q01DX001 (ip), vehicle: saline
[12] = dose: 200.0 mg/kg/injection, schedule: Q01DX001 (ip), vehicle: saline
[13] = dose: 400.0 mg/kg/injection, schedule: Q01DX001 (ip), vehicle: saline
[14] = dose: 50.0 mg/kg/injection, schedule: Q01DX009 (ip), vehicle: saline
[15] = dose: 100.0 mg/kg/injection, schedule: Q01DX009 (ip), vehicle: saline
[16] = dose: 100.0 mg/kg/injection, schedule: Q04DX003 (ip), vehicle: saline
[17] = dose: 100.0 mg/kg/injection, schedule: Q01DX001 (ip), vehicle: saline with Tween-80
[18] = dose: 200.0 mg/kg/injection, schedule: Q01DX001 (ip), vehicle: saline with Tween-80
[19] = dose: 25.0 mg/kg/injection, schedule: Q01DX009 (ip), vehicle: saline
[20] = dose: 100.0 mg/kg/injection, schedule: Q04DX002 (ip), vehicle: Klucel (hydroxypropylcellulose) (HPC)
[21] = dose: 200.0 mg/kg/injection, schedule: Q01DX009 (ip), vehicle: saline
[22] = dose: 200.0 mg/kg/injection, schedule: Q04DX003 (ip), vehicle: saline
[23] = dose: 400.0 mg/kg/injection, schedule: Q01DX009 (ip), vehicle: saline
[24] = dose: 400.0 mg/kg/injection, schedule: Q04DX003 (ip), vehicle: saline

Measured: T/C

COc1ccccc1NC(=O)Nc1ccc(SC)cc1
inactive: [1] 98 % of control | [2] 91 % of control | [3] 103 % of control | [4] 103 % of control | dose: 400.0 mg/kg/injection, schedule: Q01DX009 (ip), vehicle: Klucel (hydroxypropylcellulose) (HPC) 97 % of control | [5] 96 % of control

CC(C)(C)OC(=O)CCN1CC1
inactive: dose: 75.0 mg/kg/injection, schedule: Q01DX001 (ip), vehicle: saline 109 % of control | dose: 150.0 mg/kg/injection, schedule: Q01DX001 (ip), vehicle: saline 104 % of control

CN(C)S(=O)(=O)c1ccccc1C1(O)CCCCC1
inactive: dose: 100.0 mg/kg/injection, schedule: Q01DX009 (ip), vehicle: other 87 % of control | [6] 91 % of control | dose: 200.0 mg/kg/injection, schedule: Q01DX009 (ip), vehicle: other 94 % of control | [7] 102 % of control | dose: 400.0 mg/kg/injection, schedule: Q01DX009 (ip), vehicle: other 97 % of control | [8] 109 % of control

COc1ccc(C2(C(=O)O)CCCC2)cc1
inactive: [9] 102 % of control | [6] 103 % of control | [10] 96 % of control | [7] 108 % of control | [8] 97 % of control

NNc1ccc(CC(=O)O)cc1
inactive: [11] 98 % of control | [12] 93 % of control | [13] 98 % of control

C=C(CCCC)CNCCOC(=O)c1ccc([N+](=O)[O-])cc1
inactive: dose: 12.5 mg/kg/injection, schedule: Q04DX003 (ip), vehicle: saline 98 % of control | dose: 25.0 mg/kg/injection, schedule: Q04DX003 (ip), vehicle: saline 93 % of control | dose: 50.0 mg/kg/injection, schedule: Q04DX003 (ip), vehicle: saline 100 % of control

CN(C)CCCn1c2ccccc2c2cnccc21
inactive: [14] 100 % of control | [15] 89 % of control | [16] 97 % of control

Cc1cc(C)c2c(C#N)cn(-c3cccc([N+](=O)[O-])c3)c2n1
inactive: dose: 50.0 mg/kg/injection, schedule: Q01DX001 (ip), vehicle: saline with Tween-80 98 % of control | [17] 103 % of control | [18] 95 % of control | [12] 87 % of control

CCOC(=O)c1cnc(SC)nc1NNc1nc(SC)ncc1C(=O)OCC
inactive: [2] 93 % of control | [4] 90 % of control | [5] 93 % of control

O=C(Nc1ccc(I)cc1)Nc1ccc(Cl)cc1[N+](=O)[O-]
inactive: [17] 96 % of control | [9] 97 % of control and 92 % of control | dose: 100.0 mg/kg/injection, schedule: Q04DX002 (ip), vehicle: saline with Tween-80 98 % of control and 91 % of control | [6] 93 % of control | [18] 90 % of control | [10] 87 % of control | dose: 200.0 mg/kg/injection, schedule: Q04DX002 (ip), vehicle: saline with Tween-80 94 % of control and 98 % of control | [7] 97 % of control | dose: 400.0 mg/kg/injection, schedule: Q01DX001 (ip), vehicle: saline with Tween-80 87 % of control | dose: 400.0 mg/kg/injection, schedule: Q04DX002 (ip), vehicle: saline with Tween-80 93 % of control and 91 % of control | [8] 95 % of control

Nc1nc(S)c(N)c(=S)[nH]1
inactive: dose: 9.5 mg/kg/injection, schedule: Q01DX001 (ip), vehicle: carboxymethylcellulose (CMC) 105 % of control | dose: 19.0 mg/kg/injection, schedule: Q01DX001 (ip), vehicle: carboxymethylcellulose (CMC) 94 % of control | dose: 38.0 mg/kg/injection, schedule: Q01DX001 (ip), vehicle: carboxymethylcellulose (CMC) 97 % of control

CC(=O)Nc1ccc(OC(=O)Nc2cc(C(F)(F)F)ccc2Cl)cc1
inactive: [1] 93 % of control | [3] 111 % of control

O=S(=O)(O)c1ccc(O)c2ncccc12.[Zn+2]
inactive: dose: 50.0 mg/kg/injection, schedule: Q01DX001 (ip), vehicle: saline 100 % of control | [11] 97 % of control | [12] 97 % of control | [13] 100 % of control

CCc1ncc(C)n1Cc1ccccc1
inactive: dose: 6.25 mg/kg/injection, schedule: Q01DX009 (ip), vehicle: saline 109 % of control | dose: 12.5 mg/kg/injection, schedule: Q01DX009 (ip), vehicle: saline 102 % of control | [19] 102 % of control and 115 % of control

FC(F)(F)c1cccc(NC(=S)SCc2ccccc2)c1
inactive: dose: 75.0 mg/kg/injection, schedule: Q04DX003 (ip), vehicle: saline with Tween-80 95 % of control | dose: 150.0 mg/kg/injection, schedule: Q04DX003 (ip), vehicle: saline with Tween-80 98 % of control | dose: 300.0 mg/kg/injection, schedule: Q04DX003 (ip), vehicle: saline with Tween-80 102 % of control

O=[N+]([O-])c1cccc(S(=O)(=O)NNc2cccc(C(F)(F)F)c2)c1
inactive: [2] 99 % of control | [4] 94 % of control | [5] 89 % of control

C=C(C)c1c2ccccc2cc2cccc(Sc3ccccc3)c12
inactive: [6] 95 % of control | [7] 96 % of control | [8] 95 % of control

O=c1oc2ccc3ccccc3c2cc1-c1nc2ccccc2[nH]1
inactive: [20] 95 % of control | dose: 200.0 mg/kg/injection, schedule: Q04DX002 (ip), vehicle: Klucel (hydroxypropylcellulose) (HPC) 91 % of control | dose: 400.0 mg/kg/injection, schedule: Q04DX002 (ip), vehicle: Klucel (hydroxypropylcellulose) (HPC) 110 % of control

CCOc1ccc(N)c(S)c1
inactive: dose: 13.3 mg/kg/injection, schedule: Q01DX Z (ip), vehicle: methylcellulose (MC) 105 % of control | dose: 20.0 mg/kg/injection, schedule: Q01DX Z (ip), vehicle: methylcellulose (MC) 97 % of control | dose: 30.0 mg/kg/injection, schedule: Q01DX Z (ip), vehicle: methylcellulose (MC) 95 % of control

O=C1/C(=C\c2ccccc2)OC(c2ccccc2)O/C1=C/c1ccccc1 (configuration not stated)
inactive: [15] 91 % of control | [16] 91 % of control | [21] 98 % of control | [22] 96 % of control | [23] 88 % of control | [24] 98 % of control

COC(=O)C1(C)CCCC2(C)c3cc(OC)ccc3C3OC3C12 (configuration not stated)
inactive: dose: 100.0 mg/kg/injection, schedule: Q04DX003 (ip), vehicle: other 103 % of control | dose: 200.0 mg/kg/injection, schedule: Q04DX003 (ip), vehicle: other 100 % of control | dose: 400.0 mg/kg/injection, schedule: Q04DX003 (ip), vehicle: other 101 % of control

N#CCCC[P+](c1ccccc1)(c1ccccc1)c1ccccc1
inactive: dose: 75.0 mg/kg/injection, schedule: Q01DX001 (ip), vehicle: other 97 % of control | [20] 98 % of control

CC12CCC3(CCC4(C)C(=C3C1)CCC1C3(C)CCC(OC5OC(CO)C(O)C(O)C5O)C(C)(C)C3CCC14C)C(=O)O2 (configuration not stated)
inactive: dose: 50.0 mg/kg/injection, schedule: Q01DX009 (ip), vehicle: saline with Tween-80 104 % of control | [9] 108 % of control | [10] 114 % of control

Cc1c[nH]c(=O)cn1
inactive: [15] 97 % of control | [16] 94 % of control | [21] 90 % of control | [22] 104 % of control | [23] 93 % of control | [24] 104 % of control

N=c1ccn(CC(O)COc2ccccc2)cc1 (configuration not stated)
inactive: [11] 102 % of control

[Cl][Hg][Cl].c1ccc(N=P(c2ccccc2)(c2ccccc2)c2ccccc2)cc1
inactive: dose: 9.38 mg/kg/injection, schedule: Q01DX001 (ip), vehicle: other 96 % of control | dose: 18.75 mg/kg/injection, schedule: Q01DX001 (ip), vehicle: other 102 % of control

CC(C)(CO)N=Cc1ccccc1Br
inactive: [11] 110 % of control | [12] 98 % of control | [13] 90 % of control

CN(C)S(=O)(=O)c1ccc2c(c1)N(CCCN1CCN(S(C)(=O)=O)CC1)c1ccccc1S2
inactive: [19] 95 % of control | [14] 101 % of control | [15] 91 % of control | [21] 98 % of control | [23] 106 % of control

O=C(CSc1cc(Cl)c(Cl)cc1Cl)Nc1cccc(Br)c1
inactive: dose: 50.0 mg/kg/injection, schedule: Q04DX003 (ip), vehicle: saline with Tween-80 94 % of control | [6] 87 % of control | [7] 96 % of control
